This assay concerns the target T1, human KCNK13 (Homo sapiens, UniProt Q9HB14).
T1 construct: expressed in transfected cells
T1 sequence (Q9HB14 1-408): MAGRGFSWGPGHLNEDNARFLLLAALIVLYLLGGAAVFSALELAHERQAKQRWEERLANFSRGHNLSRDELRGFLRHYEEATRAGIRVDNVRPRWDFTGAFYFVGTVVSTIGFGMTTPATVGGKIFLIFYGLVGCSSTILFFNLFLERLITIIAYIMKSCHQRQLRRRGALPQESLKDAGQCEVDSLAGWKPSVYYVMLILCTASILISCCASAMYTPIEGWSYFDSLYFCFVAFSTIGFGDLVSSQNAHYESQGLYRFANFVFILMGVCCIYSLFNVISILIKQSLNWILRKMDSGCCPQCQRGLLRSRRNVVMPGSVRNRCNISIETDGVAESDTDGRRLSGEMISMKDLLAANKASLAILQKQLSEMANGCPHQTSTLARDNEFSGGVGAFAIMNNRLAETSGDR
Nature of the assay: KCNK13 antagonist activity, thallium (Tl+) flux FLIPR assay. It is filed as cell-based. The method, then:
KCNK13 antagonist activity was determined by measuring changes in intracellular Thallium (Tl^+) concentrations using a Tl^+ sensitive fluorescent dye. The changes in fluorescent signal were monitored by Fluorescent Imaging Plate Reader (FLIPR™) technology available from Molecular Devices, LLC, US. KCNK13 mediated increases in intracellular Tl+concentration were readily detected by addition of a thallium sulfate stimulus. 24 hours prior to the assay, human embryonic kidney 293 cells (HEK 293 cells) stably expressing human KCNK13 were seeded in cell culture medium in PDL coated black, clear-bottom 384-well plates (commercially available from Corning Inc., 356663) and grown overnight at 37° C., 5% CO2. On the day of the assay, cell culture media was removed and cells were loaded with potassium dye (commercially sold by Molecular Devices, LLC, US, R8222) for 1 hour at room temperature in the dark. Test compounds (at 10 point half log concentration response curves from […]) were added to cells for 15 minutes prior to the addition of thallium sulfate to all wells. The IC50 values were determined from ten point concentration response curves. Curves were generated using the average of two wells for each data point.

Where [1] appears, read: HEK 293 cells stably expressing human KCNK13, Tl+ sensitive dye, FLIPR, compounds 15 minutes prior to thallium sulfate, 10 point half log curves from 10 PM, read-out: hKCNK13 IC50.

The values that follow come from patent US20240158385A1, “NOVEL COMPOUNDS” (Cerevance, Inc., priority 2021, published 2024).

By IC50 is commonly meant the concentration at which inhibition is half-maximal.

Each structure is given as a SMILES string. Where two headings read alike, the source gives them in different places. Bounds are passed on as bounds.

For `Cc1nonc1-c1nc2cccc(F)c2n1Cc1cnc(C#N)cn1` [Example 41, 5-[[7-fluoro-2-(4-methyl-1,2,5-oxadiazol-3-yl)benzimidazol-1-yl]methyl]pyrazine-2-carbonitrile], the IC50 under setting [1] is less than 100 nM.

As for `Cc1nonc1-c1nc2ccccc2n1Cc1ccc[n+]([O-])c1` [Example 76, 3-methyl-4-[1-[(1-oxidopyridin-1-ium-3-yl)methyl]benzimidazol-2-yl]-1,2,5-oxadiazole], under setting [1], the IC50 was less than 500 nM.

With `Cc1conc1-c1nc2cccc(F)c2n1Cc1cccnn1` [Example 182, 3-(7-fluoro-1-(pyridazin-3-ylmethyl)-benzimidazol-2-yl)-4-methylisoxazole], under setting [1], the IC50 is less than 200 nM.

In the case of `Nc1nonc1-c1nc2ccccc2n1Cc1cccnc1` [Example 90, 4-[1-(pyridin-3-ylmethyl)benzimidazol-2-yl]-1,2,5-oxadiazol-3-amine], the IC50 under setting [1] was less than 50 nM.

In the case of `Cc1ccsc1-c1nc2ccccc2n1Cc1cccnc1` [Example 100, 2-(3-methylthiophen-2-yl)-1-(pyridin-3-ylmethyl)benzimidazole], under setting [1], the IC50 is less than 200 nM.

As to `Nc1nonc1-c1nc2ccc(F)c(F)c2n1Cc1cccnn1` (single isomer, unassigned) [Example 162, 4-(6,7-difluoro-1-(pyridazin-3-ylmethyl)-benzimidazol-2-yl)-1,2,5-oxadiazol-3-amine], the IC50 under setting [1] was less than 50 nM.

For `Nc1conc1-c1nc2cccc(F)c2n1Cc1cccnn1` [Example 186, 3-(7-fluoro-1-(pyridazin-3-ylmethyl)-benzimidazol-2-yl)isoxazol-4-amine], the IC50 under setting [1] is less than 500 nM.

`Cc1nonc1-c1nc2cccnc2n1Cc1ccc(C#N)nc1` [Example 50, 5-[[2-(4-methyl-1,2,5-oxadiazol-3-yl)imidazo[4,5-b]pyridin-3-yl]methyl]pyridine-2-carbonitrile]: under setting [1], the IC50 is less than 100 nM.

As for `Nc1nonc1-c1nc2ccc(F)cc2n1Cc1cccnc1` (single isomer, unassigned) [Example 118, 4-[6-fluoro-1-(pyridin-3-ylmethyl)benzimidazol-2-yl]-1,2,5-oxadiazol-3-amine], the IC50 under setting [1] is less than 50 nM.

For `Nc1nonc1-c1nc2ccccc2n1Cc1ccc(Br)nc1` [Example 88, 4-(1-((6-bromopyridin-3-yl)methyl)benzimidazol-2-yl)-1,2,5-oxadiazol-3-amine], under setting [1], the IC50 was less than 50 nM.

As to `Nc1nonc1-c1nc2cccc(F)c2n1Cc1ccc(C(F)F)nn1` (single isomer, unassigned) [Example 172, 4-(1-((6-(difluoromethyl)pyridazin-3-yl)methyl)-7-fluoro-benzimidazol-2-yl)-1,2,5-oxadiazol-3-amine], under setting [1], the IC50 was less than 200 nM.

As to `Nc1nonc1-c1nc2cccnc2n1Cc1ccc(Cl)nc1` [Example 23, 4-[3-[(6-chloropyridin-3-yl)methyl]imidazo[4,5-b]pyridin-2-yl]-1,2,5-oxadiazol-3-amine], the half-maximal inhibitory concentration (IC50) was less than 50 nM.

For the compound `Cc1nonc1-c1nc2c(F)cccc2n1Cc1ccc(C#N)nc1` [Example 40, 5-[[4-fluoro-2-(4-methyl-1,2,5-oxadiazol-3-yl)benzimidazol-1-yl]methyl]pyridine-2-carbonitrile], the IC50 under setting [1] is less than 100 nM.

For the compound `Cc1nonc1-c1nc2ccccc2n1Cc1ccncc1` [Example 98, 3-methyl-4-[1-(pyridin-4-ylmethyl)benzimidazol-2-yl]-1,2,5-oxadiazole], under setting [1], the IC50 is less than 100 nM.

Regarding `Nc1nonc1-c1nc2ccccc2n1Cc1cccnc1C(F)(F)F` [Example 109, 4-[1-[[2-(trifluoromethyl)pyridin-3-yl]methyl]benzimidazol-2-yl]-1,2,5-oxadiazol-3-amine], the half-maximal inhibitory concentration (IC50) under setting [1] was less than 500 nM.

The compound `Nc1nonc1-c1nc2cccnc2n1Cc1cncnc1` [Example 15, 4-[3-(pyrimidin-5-ylmethyl)imidazo[4,5-b]pyridin-2-yl]-1,2,5-oxadiazol-3-amine] had an IC50 of less than 200 nM.

Regarding `Cc1ccc(Cn2c(-c3nonc3C)nc3ccccc32)cn1` [Example 63, 3-methyl-4-[1-[(6-methylpyridin-3-yl)methyl]benzimidazol-2-yl]-1,2,5-oxadiazole], under setting [1], the IC50 was less than 200 nM.

Turning to `Cc1nonc1-c1nc2cccnc2n1Cc1cncnc1` [Example 13, 3-methyl-4-[3-(pyrimidin-5-ylmethyl)imidazo[4,5-b]pyridin-2-yl]-1,2,5-oxadiazole], the IC50 under setting [1] is less than 200 nM.

Take `CNc1nonc1-c1nc2cccc(F)c2n1Cc1cccnn1` [Example 178, 4-(7-fluoro-1-(pyridazin-3-ylmethyl)-benzimidazol-2-yl)-N-methyl-1,2,5-oxadiazol-3-amine]: the IC50 under setting [1] is less than 5000 nM.

Regarding `Nc1nonc1-c1nc2cccc(F)c2n1Cc1cccnn1` [Example 6, 4-[7-fluoro-1-(pyridazin-3-ylmethyl)benzimidazol-2-yl]-1,2,5-oxadiazol-3-amine], under setting [1], the IC50 was less than 100 nM.

On to `Nc1nonc1-c1nc2cccc(F)c2n1Cc1cncnc1` [Example 3, 4-[7-fluoro-1-(pyrimidin-5-ylmethyl)benzimidazol-2-yl]-1,2,5-oxadiazol-3-amine], for which the IC50 under setting [1] was less than 50 nM.

On to `Cc1cccc(Cn2c(-c3nonc3C)nc3ccccc32)n1` [Example 78, 3-methyl-4-[1-[(6-methylpyridin-2-yl)methyl]benzimidazol-2-yl]-1,2,5-oxadiazole], for which, under setting [1], the IC50 was less than 500 nM.

For the compound `Cc1nonc1-c1nc2c(F)cccc2n1Cc1cnc(C#N)nc1` [Example 45, 5-[[4-fluoro-2-(4-methyl-1,2,5-oxadiazol-3-yl)benzimidazol-1-yl]methyl]pyrimidine-2-carbonitrile], the half-maximal inhibitory concentration (IC50) under setting [1] is less than 100 nM.

For `Cc1nonc1-c1nc2cccc(F)c2n1Cc1cnc(C#N)nc1` [Example 44, 5-[[7-fluoro-2-(4-methyl-1,2,5-oxadiazol-3-yl)benzimidazol-1-yl]methyl]pyrimidine-2-carbonitrile], the IC50 under setting [1] is less than 50 nM.

In the case of `Cc1nonc1-c1nc2ccccc2n1Cc1cccnc1C#N` [Example 67, 3-[[2-(4-methyl-1,2,5-oxadiazol-3-yl)benzimidazol-1-yl]methyl]pyridine-2-carbonitrile], the IC50 under setting [1] is less than 200 nM.

Turning to `N#Cc1ccc(Cn2c(-c3nonc3N)nc3cccnc32)cn1` [Example 51, 5-[[2-(4-amino-1,2,5-oxadiazol-3-yl)imidazo[4,5-b]pyridin-3-yl]methyl]pyridine-2-carbonitrile], under setting [1], the IC50 was less than 500 nM.

Regarding `Cc1nonc1-c1nc2cccc(F)c2n1Cc1ccc(C#N)nc1` [Example 52, 5-[[7-fluoro-2-(4-methyl-1,2,5-oxadiazol-3-yl)benzimidazol-1-yl]methyl]pyridine-2-carbonitrile], the IC50 under setting [1] is less than 100 nM.

With `N#Cc1ncc(Cn2c(-c3nonc3N)nc3ccc(F)c(F)c32)cn1` [Example 2, 5-[[2-(4-amino-1,2,5-oxadiazol-3-yl)-6,7-difluoro-benzimidazol-1-yl]methyl]pyrimidine-2-carbonitrile], the 50% inhibitory concentration (IC50) under setting [1] was less than 50 nM.

With `Nc1nonc1-c1nc2cncc(F)c2n1Cc1cccnn1` (single isomer, unassigned) [Example 187, 4-(7-fluoro-1-(pyridazin-3-ylmethyl)-1H-imidazo[4,5-c]pyridin-2-yl)-1,2,5-oxadiazol-3-amine], the half-maximal inhibitory concentration (IC50) under setting [1] is less than 500 nM.

In the case of `Brc1nsnc1-c1nc2ccccc2n1Cc1cccnc1` [Example 126, 3-bromo-4-(1-(pyridin-3-ylmethyl)benzimidazol-2-yl)-1,2,5-thiadiazole], the concentration for half-maximal inhibition (IC50) under setting [1] was less than 100 nM.

Take `N#Cc1nsnc1-c1nc2ccccc2n1Cc1cccnc1` [Example 99, 4-[1-(pyridin-3-ylmethyl)benzimidazol-2-yl]-1,2,5-thiadiazole-3-carbonitrile]: the IC50 under setting [1] was less than 100 nM.

For the compound `Nc1nonc1-c1nc2ccccc2n1Cc1ccnnc1` [Example 107, 4-[1-(pyridazin-4-ylmethyl)benzimidazol-2-yl]-1,2,5-oxadiazol-3-amine], the IC50 under setting [1] is less than 200 nM.

Take `Nc1nonc1-c1nc2c(F)ccc(F)c2n1Cc1cccnn1` [Example 154, 4-(4,7-difluoro-1-(pyridazin-3-ylmethyl)-benzimidazol-2-yl)-1,2,5-oxadiazol-3-amine]: the IC50 under setting [1] is less than 50 nM.

As for `Nc1nonc1-c1nc2c(F)cccc2n1Cc1cncnc1` [Example 131, 4-[4-fluoro-1-(pyrimidin-5-ylmethyl)benzimidazol-2-yl]-1,2,5-oxadiazol-3-amine], under setting [1], the half-maximal inhibitory concentration (IC50) is less than 100 nM.

As to `Nc1nonc1-c1nc2ccccc2n1Cc1ccncn1` [Example 106, 4-[1-(pyrimidin-4-ylmethyl)benzimidazol-2-yl]-1,2,5-oxadiazol-3-amine], the IC50 under setting [1] is less than 200 nM.

Take `Cc1nocc1-c1nc2ccccc2n1Cc1cccnc1` [Example 112, 3-methyl-4-[1-(pyridin-3-ylmethyl)benzimidazol-2-yl]isoxazole]: the IC50 under setting [1] was less than 500 nM.
